Here are results for two molecules from paper PMC12595434, “Development of retinoid nuclear receptor pathway antagonists through targeting aldehyde dehydrogenase 1A3” (iScience, 2025).

Values after ≈ are worked out from the molar mass of the structure shown. Where two headings read alike, the source gives them in different places.

Series [1] can be described thus: Cytotoxicity, 48 h tetrazolium proliferation assay.
Series [2] addresses T1, ALDH1A3 (Homo sapiens, UniProt P47895).
T1 sequence (P47895 1-512): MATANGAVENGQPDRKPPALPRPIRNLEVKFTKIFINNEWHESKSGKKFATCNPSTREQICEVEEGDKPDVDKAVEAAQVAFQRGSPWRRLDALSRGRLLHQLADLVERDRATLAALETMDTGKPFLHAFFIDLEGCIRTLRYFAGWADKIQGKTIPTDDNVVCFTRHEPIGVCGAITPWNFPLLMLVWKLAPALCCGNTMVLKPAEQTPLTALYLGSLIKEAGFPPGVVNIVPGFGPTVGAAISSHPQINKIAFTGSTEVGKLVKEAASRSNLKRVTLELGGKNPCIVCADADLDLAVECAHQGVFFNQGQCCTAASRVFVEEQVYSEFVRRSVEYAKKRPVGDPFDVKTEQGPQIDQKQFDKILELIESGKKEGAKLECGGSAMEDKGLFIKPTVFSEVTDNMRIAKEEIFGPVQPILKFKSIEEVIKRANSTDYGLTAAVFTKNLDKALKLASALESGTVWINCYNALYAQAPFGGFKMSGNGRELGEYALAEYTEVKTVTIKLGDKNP
In words: Microscale thermophoresis (MST) binding. Also on record: made in house; host or cells: BL21-DE3 E. coli. To be noted: biophysical assay (Table 1). A general note: Microscale thermophoresis detects binding through changes in fluorescence in a small temperature gradient.

A further series concerns MDR2. Nature of the series: MDCK-MDR2 bidirectional permeability assay. The series is classed as in vitro ADME. To be noted: dog; efflux ratio; read-out: MDCK-MDR2 (B to A/A to B).
A further series concerns MDCK-MDR2. In words: MDCK-MDR2 bidirectional permeability assay. In kind it is in vitro ADME. To be noted: A to B.
In a further series the target is CYP2C19 (Homo sapiens, UniProt P33261). Nature of the series: CYP inhibition. The series is classed as in vitro ADME.
Chain of CYP2C19 (P33261 whole entry): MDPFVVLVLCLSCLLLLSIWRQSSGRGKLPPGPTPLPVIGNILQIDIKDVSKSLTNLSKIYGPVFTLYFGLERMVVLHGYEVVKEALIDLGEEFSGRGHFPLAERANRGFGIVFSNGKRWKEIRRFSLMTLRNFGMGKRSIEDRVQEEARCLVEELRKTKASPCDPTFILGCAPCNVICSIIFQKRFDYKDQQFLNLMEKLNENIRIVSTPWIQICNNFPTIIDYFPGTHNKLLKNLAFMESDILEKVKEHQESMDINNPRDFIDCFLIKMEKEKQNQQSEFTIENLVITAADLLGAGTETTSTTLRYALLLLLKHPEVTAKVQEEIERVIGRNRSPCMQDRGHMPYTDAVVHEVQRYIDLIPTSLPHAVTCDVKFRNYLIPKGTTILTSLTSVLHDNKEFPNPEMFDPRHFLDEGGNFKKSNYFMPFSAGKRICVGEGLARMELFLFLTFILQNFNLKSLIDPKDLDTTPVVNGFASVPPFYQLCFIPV
The target in series [3] is T1, ALDH1A3. Nature of the series: Recombinant enzyme activity assay. Also noted: made in house; host or cells: BL21-DE3 E. coli. In kind it is biochemical.
Method: We then tested each published ALDH inhibitor against the three human ALDH1A enzymes to assess inhibitory activity and isozyme selectivity.
Recombinant protein was isolated by inducing BL21-DE3 E. coli (Thermo Fisher) containing the respective plasmid for 20 h at room temperature, shaking, with 300 μM IPTG (Selleck Chem). […] The target protein was then purified using Ni NTA beads 6FF affinity chromatography. Lysis buffer consisted of 50 mM Na2HPO4, 300 mM NaCl, 1 mM β-ME, pH7.5. The column (2 mL) was washed with 50 mM Na2HPO4, 300 mM NaCl, 1 mM β-ME, 20 mM Imidazole, pH7.5. Elution was performed using 3 mL of 50 mM Na2HPO4, 300 mM NaCl, 1 mM β-ME, 250 mM Imidazole, pH7.5. Following affinity chromatography, the protein underwent further purification via Gel filtration chromatography using a Superdex200 column. […] Purified enzyme was used for biochemical and biophysical assays.
Another series has as its target hERG (Homo sapiens, UniProt Q12809). Nature of the series: hERG patch-clamp. The series is classed as cell-based. A general note: hERG is a cardiac potassium channel; its block is linked to QT prolongation.
Series [4] can be described thus: Hepatocyte stability (human). In kind it is in vitro ADME. To be noted: hepatocytes, read-out: Hepatocyte T1/2 (human).
The test system of series [5] is endogenous ALDH1A3 in MDA-MB-468 cells. Nature of the series: Quantification of atRA in cells. In kind it is cell-based, human. To be noted: 24 h, dose titration.
In series [6] the target is T2, human ALDH1A3 in A375 cells (Homo sapiens, UniProt P47895).
T2 construct: the cell lines with high endogenous ALDH1A3 activity: MDA-MB-468 (triple-negative breast cancer), A375 (melanoma), and LN229 (glioblastoma); endogenous in cells; host or cells: A375
T2 sequence (P47895 1-512): T1 sequence (P47895 1-512)
Nature of the series: Aldefluor assay in A375 cells. In kind it is cell-based. To be noted: for Aldefluor activity at 100 nM (in words): A375 cells; for EC50: Aldefluor in A375 cells, read-out: EC50 cellular, human ALDH1A3.
Method: In addition, cells were suspended at a concentration of 100,000 cells per mL. Finally, DMSO was added to at 1% final in all cells to improve kinetics of the assay. For compound titrations, concentrated compound stock was added first to tubes and a uniform Aldefluor buffer containing the cell suspension was added to dilute to final volumes. Cells were analyzed by a BD LSRII for flow cytometry and were sorted using a FACSAria Fusion cell sorter (BD Biosciences) equipped with a 70 micron nozzle. Sample and sort collection tubes were kept at 4°C. […] DAPI was used as a live-dead indicator.

Series [7] can be described thus: Microsomal stability (human). To be noted: microsomes, read-out: Microsomal T1/2 (human). The series is classed as in vitro ADME.
The nature of another series: Kinetic solubility. In kind it is physicochemical. To be noted: kinetic from dmso stock. The text has this: (§1) Table 1 Physiochemical, biochemical, and metabolic profile of lead compounds MBE1 and MBE1.5 | column: MBE1; MBE1.5
The nature of another series: Protein binding (human). In kind it is in vitro ADME. To be noted: plasma.
From the text: as §1

The nature of series [8]: Microsomal stability (mouse). The series is classed as in vitro ADME. To be noted: microsomes, read-out: Microsomal T1/2 (mouse).
In the next series the target is T3, human ALDH2 (Homo sapiens, UniProt P05091).
T3 construct: made in house; host or cells: BL21-DE3 E. coli
T3 sequence (P05091 18-517): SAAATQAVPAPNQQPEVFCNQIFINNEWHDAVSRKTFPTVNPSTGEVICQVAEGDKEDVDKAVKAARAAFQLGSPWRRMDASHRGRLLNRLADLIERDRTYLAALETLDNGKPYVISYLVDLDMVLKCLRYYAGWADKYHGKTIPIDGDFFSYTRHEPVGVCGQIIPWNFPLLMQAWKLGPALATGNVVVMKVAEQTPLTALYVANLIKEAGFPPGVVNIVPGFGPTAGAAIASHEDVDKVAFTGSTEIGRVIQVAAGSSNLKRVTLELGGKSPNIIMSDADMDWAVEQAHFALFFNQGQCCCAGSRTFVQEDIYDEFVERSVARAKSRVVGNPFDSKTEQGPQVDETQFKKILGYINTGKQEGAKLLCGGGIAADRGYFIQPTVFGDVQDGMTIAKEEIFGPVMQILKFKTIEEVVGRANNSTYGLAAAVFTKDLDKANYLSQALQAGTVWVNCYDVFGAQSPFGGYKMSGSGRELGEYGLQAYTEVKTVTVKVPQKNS
In words: Recombinant enzyme activity assay. The series is classed as biochemical. To be noted: dose titration. Here is the method:
(§2) Human and mouse ALDH enzymes were cloned from respective reference RNA, constructed into plasmids using restriction enzyme cloning and confirmed by Sanger Sequencing. Genes were cloned into a vector containing the T7 promoter for bacterial expression and into a lentiviral expression vector for cell line expression as previously described.[78] Recombinant protein was isolated by inducing BL21-DE3 E. coli (Thermo Fisher) containing the respective plasmid for 20 h at room temperature, shaking, with 300 μM IPTG (Selleck Chem). Cell disruption was achieved via ultrasonication (Φ10, 3s on/6s off, 25min) in 1L of amplified bacterial culture. The target protein was then purified using Ni NTA beads 6FF affinity chromatography. Lysis buffer consisted of 50 mM Na2HPO4, 300 mM NaCl, 1 mM β-ME, pH7.5. The column (2 mL) was washed with 50 mM Na2HPO4, 300 mM NaCl, 1 mM β-ME, 20 mM Imidazole, pH7.5. Elution was performed using 3 mL of 50 mM Na2HPO4, 300 mM NaCl, 1 mM β-ME, 250 mM Imidazole, pH7.5. Following affinity chromatography, the protein underwent further purification via Gel filtration chromatography using a Superdex200 column. Aliquots were quality controlled against a pure internal standard enzyme and/or by western blot to confirm enzyme expression. Purified enzyme was used for biochemical and biophysical assays.
(§3) For the recombinant enzyme activity assay, enzyme aliquots were thawed on ice for 4 h prior to analysis and the protocol was performed as described[8] with the following key changes: 1) Final concentrations of NAD+ (Gold Bio) were 200 μM and BSA were 1 mg/mL 2) Propanaldehyde was used as the substrate for ALDH1A1 and ALDH2. 3) Reaction velocity was monitored through diaphorase (clostridium) coupled reduction of resazurin (100 μM) monitored with ex/em of 560nm/590 nm in order to regenerate NAD+ and thus maintain constant cofactor concentration as well as to avoid high absorbance values of many screening compounds at the NADH absorbance. Assays were conducted at room temperature (controlled to 21-23C) and all buffers were maintained at pH 7.5. For all reactions, pre-incubation time was approximately 2 min while the reaction monitoring was performed over 10 min.

A further series addresses T4, mouse ALDH1A2 (Mus musculus, UniProt Q62148).
T4 construct: made in house; host or cells: BL21-DE3 E. coli
Nature of the series: Recombinant enzyme activity assay. To be noted: recombinant activity assay (Table 1); read-out: IC50 molecular, mouse ALDH1A2. In kind it is biochemical. Here is the method:
as §2, §3

Where [9] appears, read: pH 4.5, aqueous buffer, read-out: Kinetic solubility pH 4.5.
[10] abbreviates: pH 7.6, aqueous buffer, read-out: Kinetic solubility pH 7.6.

T4 sequence (Q62148 whole entry): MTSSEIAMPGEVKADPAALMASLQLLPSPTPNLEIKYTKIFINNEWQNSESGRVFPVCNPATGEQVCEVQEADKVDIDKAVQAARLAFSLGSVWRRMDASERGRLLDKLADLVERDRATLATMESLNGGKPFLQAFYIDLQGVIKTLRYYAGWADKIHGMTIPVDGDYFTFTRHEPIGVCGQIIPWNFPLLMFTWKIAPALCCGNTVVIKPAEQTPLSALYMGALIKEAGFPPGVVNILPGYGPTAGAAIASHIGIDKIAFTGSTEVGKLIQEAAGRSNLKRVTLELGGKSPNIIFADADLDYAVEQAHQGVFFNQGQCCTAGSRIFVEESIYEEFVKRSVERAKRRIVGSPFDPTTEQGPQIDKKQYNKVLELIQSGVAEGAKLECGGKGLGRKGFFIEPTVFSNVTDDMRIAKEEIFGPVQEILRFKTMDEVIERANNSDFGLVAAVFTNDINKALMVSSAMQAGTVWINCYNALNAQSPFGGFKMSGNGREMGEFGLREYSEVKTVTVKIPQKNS
Chain of hERG (Q12809 whole entry): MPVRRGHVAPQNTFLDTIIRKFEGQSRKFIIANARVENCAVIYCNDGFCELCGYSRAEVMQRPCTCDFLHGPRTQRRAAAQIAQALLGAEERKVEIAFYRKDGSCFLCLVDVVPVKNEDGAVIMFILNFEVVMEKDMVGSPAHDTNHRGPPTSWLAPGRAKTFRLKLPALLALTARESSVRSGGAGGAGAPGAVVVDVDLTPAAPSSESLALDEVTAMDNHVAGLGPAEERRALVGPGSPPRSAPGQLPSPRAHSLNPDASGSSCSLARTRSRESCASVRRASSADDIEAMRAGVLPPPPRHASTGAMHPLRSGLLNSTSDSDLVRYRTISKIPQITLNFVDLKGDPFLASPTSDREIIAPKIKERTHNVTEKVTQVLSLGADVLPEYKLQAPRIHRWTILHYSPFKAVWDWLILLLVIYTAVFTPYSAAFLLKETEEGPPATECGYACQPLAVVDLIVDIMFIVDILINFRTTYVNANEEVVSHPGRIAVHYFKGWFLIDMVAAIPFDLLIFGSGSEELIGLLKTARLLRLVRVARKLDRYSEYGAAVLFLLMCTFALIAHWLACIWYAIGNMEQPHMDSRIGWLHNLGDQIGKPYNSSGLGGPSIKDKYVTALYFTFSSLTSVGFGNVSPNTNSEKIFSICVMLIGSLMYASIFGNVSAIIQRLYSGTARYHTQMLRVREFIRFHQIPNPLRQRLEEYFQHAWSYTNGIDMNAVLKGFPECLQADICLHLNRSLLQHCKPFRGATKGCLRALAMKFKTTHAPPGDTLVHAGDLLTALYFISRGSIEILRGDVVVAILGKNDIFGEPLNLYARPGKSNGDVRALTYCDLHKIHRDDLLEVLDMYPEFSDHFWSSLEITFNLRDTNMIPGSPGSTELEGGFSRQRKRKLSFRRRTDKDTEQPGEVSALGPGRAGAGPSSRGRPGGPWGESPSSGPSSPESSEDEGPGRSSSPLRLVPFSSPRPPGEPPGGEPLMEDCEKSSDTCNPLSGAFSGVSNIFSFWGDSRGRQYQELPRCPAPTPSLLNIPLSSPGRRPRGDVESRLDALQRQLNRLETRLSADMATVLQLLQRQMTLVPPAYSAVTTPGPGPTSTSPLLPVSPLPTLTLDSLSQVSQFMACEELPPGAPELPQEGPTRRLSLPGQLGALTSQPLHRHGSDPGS

As usually defined, the Kd is the free concentration of one partner at which half of the binding sites on the other are occupied at equilibrium, for simple one-to-one binding. Low values mean higher affinity, high ones lower affinity. A word on the inhibition: it is the share of the control response that was lost under treatment. Low values mean little suppression, high ones strong suppression. What is called IC50 is the point on the concentration scale where inhibition reaches its midpoint. For orientation: EC50 means the concentration needed to bring the measured effect to its halfway point. What is called solubility (kinetic) is the concentration staying in solution when a stock, usually in DMSO, is diluted into the medium. What is called fraction unbound is free concentration divided by total concentration. In series [1], `CCc1cnccc1C(=O)Nc1cc2c(cc1F)NC(=O)CC2` [MBE1, 3-ethyl-N-(7-fluoro-2-oxo-3,4-dihydro-1H-quinolin-6-yl)pyridine-4-carboxamide] returned a Cytotoxicity greater than 100 µM. The Kd on ALDH1A3 [2] was 71.7 nM. Also, in the series on MDR2, the efflux ratio worked out at 2.42. Besides, the “MDCK-MDR2 permeability A to B” value in the series with MDCK-MDR2 was “high”. Also, 10 µM produced 15.8% inhibition on CYP2C19. Besides, the IC50 at ALDH1A3 [3] (dose titration, substrate competition assay, recombinant human ALDH1A3, 4-parameter equation, read-out: huALDH1A3 IC50) was found to be 148 nM; on hERG it was 26600 nM; at mouse ALDH1A2, 3330 nM. Also, the confirmatory screening result at ALDH1A3 [3] (hits of the 494-compound screen) is “true positives”. Moreover, the half-life in series [4] is greater than 3.61 h; in series [7], greater than 2.42 h; in series [8] it was 0.727 h. The “reduction of atRA formation (in words)” value in series [5] was “potently reduced atRA formation”. Moreover, in series [6], the “Aldefluor activity at 100 nM (in words)” value was “highest activity”. Besides, the concentration for a half-maximal effect (EC50) in series [6] is 5.1 nM. For the same molecule, the solubility (kinetic) in “Kinetic solubility” (setting [9]) and in “Kinetic solubility” (setting [10]) was greater than 200 µM in each case. This molecule gave a fraction unbound in the series “Protein binding (human)” of 0.527. For the same molecule, the “inhibitory activity against ALDH2 (in words)” value at human ALDH2 was “no inhibition”.

Regarding `CCc1ccccc1C(=O)Nc1cc2c(cc1F)NC(=O)CC2` [MBE1.5, 2-ethyl-N-(7-fluoro-2-oxo-3,4-dihydro-1H-quinolin-6-yl)benzamide], the Cytotoxicity in series [1] is greater than 100 µM. In addition, on ALDH1A3 [2], binding was put at a Kd of 42.1 nM. Further, the efflux ratio in the series with MDR2 is 0.6. For the same molecule, the “MDCK-MDR2 permeability A to B” value in the series with MDCK-MDR2 is listed as “high”. Besides, the inhibition at 10 µM on CYP2C19 was 0%. For the same molecule, the IC50 at ALDH1A3 [3] (recombinant activity assay (Table 1), read-out: IC50 molecular, human ALDH1A3) was 83 nM; at hERG it was greater than 30000 nM; on mouse ALDH1A2, 4000 nM. In addition, the competition mode entry on ALDH1A3 [3] (varying substrate and cofactor concentrations) is reported as “noncompetitive inhibitor”. Further, the half-life in [4] was greater than 3.61 h; in [7] it was greater than 2.42 h; in series [8] it was 1.87 h. Moreover, in series [5], the “reduction of atRA formation (in words)” value is listed as “potently reduced atRA formation”. Further, the “Aldefluor activity at 100 nM (in words)” value in [6] was “highest activity”. The EC50 in [6] turned out to be 1.9 nM. In addition, the kinetic solubility was found to be 34.2 µM (≈ 10.7 µg/mL) in the series “Kinetic solubility” (setting [9]) and 33.3 µM (≈ 10.4 µg/mL) in the series “Kinetic solubility” (setting [10]). This molecule also showed a fraction unbound in “Protein binding (human)” of 0.137. The “inhibitory activity against ALDH2 (in words)” value at human ALDH2 is given as “no inhibition”.
